In patent publication US20100273772A1, “Bisaryl Alkynylamides as Negative Allosteric Modulators of Metabotropic Glutamate Receptor 5 (MGLUR5)” (Wyeth LLC, priority 2009, published 2010):

Legend:
[1] = molecular target: T1, metabotropic glutamate receptor 5 (Rattus norvegicus, UniProt P31424); assay: FLIPR Calcium 3 fluorescence-based functional assay of intracellular calcium, mGluR5 antagonist activity; format: cell-based; conditions: inhibition of glutamate (EC90, ~50 uM) stimulated calcium levels, mGluR5 HEK-293 cells; read-out: mGluR5 FLIPR MP Antagonist DR IC50
T1 construct: expressed in transfected cells; host or cells: HEK-293
T1 sequence (P31424 21-1203): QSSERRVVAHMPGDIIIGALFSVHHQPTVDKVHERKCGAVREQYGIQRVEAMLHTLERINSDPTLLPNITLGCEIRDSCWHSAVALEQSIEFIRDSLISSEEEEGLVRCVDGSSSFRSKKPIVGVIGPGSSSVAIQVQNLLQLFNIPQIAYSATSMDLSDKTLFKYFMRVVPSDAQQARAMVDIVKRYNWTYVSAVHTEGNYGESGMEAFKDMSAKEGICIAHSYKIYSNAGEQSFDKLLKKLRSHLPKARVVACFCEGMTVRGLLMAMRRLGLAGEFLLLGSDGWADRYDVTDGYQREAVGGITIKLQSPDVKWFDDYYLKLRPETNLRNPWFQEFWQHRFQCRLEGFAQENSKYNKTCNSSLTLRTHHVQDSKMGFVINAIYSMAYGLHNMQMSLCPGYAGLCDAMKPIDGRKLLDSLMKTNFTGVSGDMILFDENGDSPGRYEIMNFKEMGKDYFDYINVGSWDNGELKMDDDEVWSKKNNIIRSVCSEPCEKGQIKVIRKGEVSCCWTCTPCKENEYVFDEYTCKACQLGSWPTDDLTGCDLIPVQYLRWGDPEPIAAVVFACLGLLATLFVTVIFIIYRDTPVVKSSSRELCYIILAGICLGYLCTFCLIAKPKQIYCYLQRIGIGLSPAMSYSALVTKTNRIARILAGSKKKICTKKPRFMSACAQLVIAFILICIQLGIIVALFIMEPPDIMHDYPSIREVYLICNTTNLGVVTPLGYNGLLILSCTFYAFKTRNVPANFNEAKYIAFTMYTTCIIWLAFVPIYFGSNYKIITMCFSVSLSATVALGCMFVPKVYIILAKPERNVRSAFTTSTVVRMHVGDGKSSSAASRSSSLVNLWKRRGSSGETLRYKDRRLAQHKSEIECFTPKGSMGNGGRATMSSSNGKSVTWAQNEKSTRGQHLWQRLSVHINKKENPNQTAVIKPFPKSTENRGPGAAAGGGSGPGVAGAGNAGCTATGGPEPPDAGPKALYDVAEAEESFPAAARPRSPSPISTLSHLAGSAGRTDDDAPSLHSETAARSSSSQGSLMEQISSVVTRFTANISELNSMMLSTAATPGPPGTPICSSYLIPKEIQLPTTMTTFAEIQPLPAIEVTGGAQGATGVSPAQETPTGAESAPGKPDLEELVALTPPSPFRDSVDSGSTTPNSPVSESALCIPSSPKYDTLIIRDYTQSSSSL
Source text: (§1) where [L]=concentration of free radioligand and Kd=dissociation constant of radioligand for the receptor. TITLE: Identification of metabotropic glutamate receptor 5 antagonists using a stable, sensitive fluorescence-based screening system PURPOSE: The aim of the research presented here was to develop a robust functional assay to measure changes in intracellular calcium, with the goal of identifying potent mGluR5 antagonists.
The FLIPR Calcium 3 Assay Kit is designed to work with many cell types, both adherent and non-adherent. Optimal cell conditions for the FLIPR Calcium 3 Assay Kit require the creation of a confluent cell monolayer before placing the plates in FLIPR or FlexStation. In general, we start with 50,000 mGluR5 HEK-293 cells/well for a 96-well plate. For adherent cells, seeding cells overnight with a plating volume of 100 μL/well worked for 96-well plates.
Remove cell plates from the incubator. Remove the supernatant medium. Add 180 ul of Loading Buffer to each well (for 96-well plates). HBSS buffer component B) pipette 100 mL of 10× Hank's Balanced Salt Solution and 20 mL of 1M Hepes buffer
Incubate cell plates for 1 hour at 37° C. and then keep the plates at room temperature until used.
After incubation, transfer the plates directly to FLIPR and begin the calcium assay as described in the FLIPR system manual. For a signal test, a starting average count of ˜10,000 is recommended. Recommended experimental setup parameters are as follows. Faster addition speeds can lead to better mixing of compounds and lower signal variance across the plate.
Test or reference compound is added to the 96-well plate (manually). […] Relative Fluorescence Units (RFUs) are recorded over a given time period (stated above) depending on the platform system used.
For antagonists, results are expressed as % inhibition of glutamate stimulated Calcium levels. IC50 values were calculated by Prism GraphPad using a 4-parameter logistic equation. IC50 values are calculated using GraphPad by fitting to a 1 site-model.

rat mGluR5 receptor = molecular target: T2, rat mGluR5 receptor (Rattus norvegicus, UniProt P31424); assay: [3H]-MPEP binding HEK-293 cell membranes expressing a rat mGluR5 receptor; conditions: displacement of 4 nM [3H]-MPEP, HEK-293 cell membranes expressing rat mGluR5, 60 minute at room temperature; read-out: mGluR5 Ligand Binding DR Ki
T2 construct: expressed in transfected cells; host or cells: HEK-293
T2 sequence (P31424 21-1203): as above
Procedure: TITLE: [^3H]-MPEP binding HEK-293 cell membranes expressing a rat mGluR5 receptor. PURPOSE: To identify high affinity compounds at the rat mGluR5 receptor based on their ability to displace the mGluR5 negative allosteric modulator, MPEP.
mGluR5 expressing HEK-293 cells are scraped off the plate, transferred to centrifuge tubes, and washed twice by centrifugation (2000 rpm for 10 min., 4° C.) in buffer (50 mM Tris pH 7.5). The resulting pellets are aliquoted and placed at −80° C. On the day of assay, the cells are thawed on ice, and resuspended in buffer. The binding assay is performed in a 96 well microtiter plate in a total volume of 250 μL. Non-specific binding is determined in the presence of 10 μM MPEP. Binding reaction includes a final radioligand [^3H]-MPEP concentration of 4 nM and 12-25 ug membrane protein per well. Following a 60 minute incubation at room temperature, the reaction is terminated by the addition of ice cold buffer and rapid filtration through a GF/B filter presoaked for 30 minutes in 0.5% PEI. Compounds are initially tested in a single point assay to determine percent inhibition at 10 μM. Subsequently, Ki values are determined for compounds defined to be active.
% inhibition and Ki values generated by GraphPad Prism and Excel Fit. IC50 values are calculated using GraphPad by fitting to a 1 or 2 site-binding model. Ki values are calculated from the apparent IC50 values using the Cheng-Prussof equation:
as §1

Row | Compound | IC50 [1] | Ki (rat mGluR5 receptor)
1 | 2-[4-methoxy-3-(pyridin-2-ylethynyl)benzoyl]-7-(trifluoromethyl)-1,2,3,4-tetrahydroisoquinoline [Example 16] | 125 nM | 1 nM
2 | 7-fluoro-2-[4-methoxy-3-(pyridin-2-ylethynyl)benzoyl]-1,2,3,4-tetrahydroisoquinoline [Example 9] | 23 nM | 3 nM
3 | COc1ccc(C(=O)N2Cc3ccccc3C2)cc1C#Cc1ccccn1 [Example 1, 2-[4-Methoxy-3-(pyridin-2-ylethynyl)benzoyl]isoindoline] | 10 nM | 4 nM
4 | COc1ccc(C(=O)N2CCc3ccccc3C2)cc1C#Cc1ccccn1 [Example 2, 2-[4-methoxy-3-(pyridin-2-ylethynyl)benzoyl]-1,2,3,4-tetrahydroisoquinoline] | 24 nM | 3 nM
5 | COc1ccc(C(=O)N2CCc3c(F)cccc3C2)cc1C#Cc1ccccn1 [Example 3, 5-fluoro-2-[4-methoxy-3-(pyridin-2-ylethynyl)benzoyl]-1,2,3,4-tetrahydroisoquinoline] | 44 nM | 2 nM
6 | COc1ccc(C(=O)N2CCc3c(cccc3C(F)(F)F)C2)cc1C#Cc1ccccn1 [Example 4, 2-[4-methoxy-3-(pyridin-2-ylethynyl)benzoyl]-5-(trifluoromethyl)-1,2,3,4-tetrahydroisoquinoline] | 134 nM | 0.4 nM
7 | COc1ccc(C(=O)N2CCc3cccc(C(F)(F)F)c3C2)cc1C#Cc1ccccn1 [Example 5, 2-[4-methoxy-3-(pyridin-2-ylethynyl)benzoyl]-8-(trifluoromethyl)-1,2,3,4-tetrahydroisoquinoline] | 151 nM | 2 nM
8 | COc1ccc(C(=O)N2CCc3c(F)ccc(F)c3C2)cc1C#Cc1ccccn1 [Example 6, 5,8-difluoro-2-[4-methoxy-3-(pyridin-2-ylethynyl)benzoyl]-1,2,3,4-tetrahydroisoquinoline] | 52 nM | 2 nM
9 | COc1ccc(C(=O)N2CCc3c(Cl)cc(Cl)cc3C2)cc1C#Cc1ccccn1 [Example 7, 5,7-dichloro-2-[4-methoxy-3-(pyridin-2-ylethynyl)benzoyl]-1,2,3,4-tetrahydroisoquinoline] | 176 nM | –
10 | COc1ccc(C(=O)N2CCc3ccc(Cl)cc3C2)cc1C#Cc1ccccn1 [Example 8, 7-chloro-2-[4-methoxy-3-(pyridin-2-ylethynyl)benzoyl]-1,2,3,4-tetrahydroisoquinoline] | 16 nM | 1 nM
11 | COc1ccc(C(=O)N2CCc3c(Cl)cccc3C2)cc1C#Cc1ccccn1 [Example 10, 5-chloro-2-[4-methoxy-3-(pyridin-2-ylethynyl)benzoyl]-1,2,3,4-tetrahydroisoquinoline] | 50 nM | 1 nM
12 | COc1ccc(C(=O)N2C3CCC2c2ccccc23)cc1C#Cc1ccccn1 [Example 18, 9-[4-methoxy-3-(pyridin-2-ylethynyl)benzoyl]-1,2,3,4-tetrahydro-1,4-epiminonaphthalene] | – | 1120 nM

More lines, now with the values ahead:

Row | IC50 [1] | Ki (rat mGluR5 receptor) | Compound
13 | 130 nM | 11 nM | COc1ccc(C(=O)N2CCc3ccc(C#N)cc3C2)cc1C#Cc1ccccn1 [Example 11, 2-[4-methoxy-3-(pyridin-2-ylethynyl)benzoyl]-1,2,3,4-tetrahydroisoquinoline-7-carbonitrile]
14 | > 1000 nM | 8 nM | COc1ccc(C(=O)N2CCc3[nH]c4ccccc4c3C2)cc1C#Cc1ccccn1 [Example 12, 2-[4-methoxy-3-(pyridin-2-ylethynyl)benzoyl]-2,3,4,5-tetrahydro-1H-pyrido[4,3-b]indole]
15 | 44 nM | 5 nM | COc1ccc(C(=O)N2CCc3sccc3C2)cc1C#Cc1ccccn1 [Example 13, 5-[4-methoxy-3-(pyridin-2-ylethynyl)benzoyl]-4,5,6,7-tetrahydrothieno[3,2-c]pyridine]
16 | 51 nM | 8 nM | COc1ccc(C(=O)N2CCc3ncc(Br)cc3C2)cc1C#Cc1ccccn1 [Example 14, 3-bromo-6-[4-methoxy-3-(pyridin-2-ylethynyl)benzoyl]-5,6,7,8-tetrahydro-1,6-naphthyridine]
17 | – | 96 nM | COc1ccc(C(=O)N2CCc3nc[nH]c(=O)c3C2)cc1C#Cc1ccccn1 [Example 15, 6-[4-methoxy-3-(pyridin-2-ylethynyl)benzoyl]-5,6,7,8-tetrahydropyrido[4,3-d]pyrimidin-4(3H)-one]
18 | – | 612 nM | COc1ccc(C(=O)N2Cc3ccccc3C2CC(C)(C)O)cc1C#Cc1ccccn1 (stereo not drawn) [Example 17, 1-{2-[4-methoxy-3-(pyridin-2-ylethynyl)benzoyl]-2,3-dihydro-1H-isoindol-1-yl}-2-methylpropan-2-ol]
19 | 30 nM | 6 nM | COc1ccc(C(=O)N2CCc3c(OC)ccc(OC)c3C2)cc1C#Cc1ccccn1 [Example 19, 5,8-dimethoxy-2-[4-methoxy-3-(pyridin-2-ylethynyl)benzoyl]-1,2,3,4-tetrahydroisoquinoline]
20 | 49 nM | 36 nM | COc1ccc(C(=O)N2CCc3cc(OC)c(OC)cc3C2)cc1C#Cc1ccccn1 [Example 20, 6,7-dimethoxy-2-[4-methoxy-3-(pyridin-2-ylethynyl)benzoyl]-1,2,3,4-tetrahydroisoquinoline]
21 | – | > 10000 nM | COc1ccc(C(=O)N2CCc3cccc(C4CCN(S(C)(=O)=O)CC4)c3C2)cc1C#Cc1ccccn1 [Example 23, 2-[4-methoxy-3-(pyridin-2-ylethynyl)benzoyl]-8-[1-(methylsulfonyl)piperidin-4-yl]-1,2,3,4-tetrahydroisoquinoline]
22 | – | 520 nM | COc1ccc(C(=O)N2Cc3ccccc3C(Oc3ccc(C(F)(F)F)cc3)C2)cc1C#Cc1ccccn1 (stereo not drawn) [Example 24, 2-[4-methoxy-3-(pyridin-2-ylethynyl)benzoyl]-4-[4-(trifluoromethyl)phenoxy]-1,2,3,4-tetrahydroisoquinoline]
23 | – | 178 nM | COc1ccc(C(=O)N2CCc3ccccc3[C@H]2[C@@H]2CCCO2)cc1C#Cc1ccccn1 [Example 28, (1S)-2-[4-methoxy-3-(pyridin-2-ylethynyl)benzoyl]-1-[(2S)-tetrahydrofuran-2-yl]-1,2,3,4-tetrahydroisoquinoline]
24 | – | 327 nM | COc1ccc(C(=O)N2CCc3ccccc3C2Cc2ccccc2)cc1C#Cc1ccccn1 (stereo not drawn) [Example 30, 1-benzyl-2-[4-methoxy-3-(pyridin-2-ylethynyl)benzoyl]-1,2,3,4-tetrahydroisoquinoline]
25 | – | 269 nM | COc1ccc(C(=O)N2CCn3c(nnc3C(F)(F)F)C2)cc1C#Cc1ccccn1 [Example 49, 7-{[4-methoxy-3-(pyridin-2-ylethynyl)phenyl]carbonyl}-3-(trifluoromethyl)-5,6,7,8-tetrahydro[1,2,4]triazolo[4,3-a]pyrazine]
26 | – | 112 nM | COc1ccc(C(=O)N2CCNc3ccccc3C2)cc1C#Cc1ccccn1 [Example 56, 4-{[4-methoxy-3-(pyridin-2-ylethynyl)phenyl]carbonyl}-2,3,4,5-tetrahydro-1H-1,4-benzodiazepine]
27 | – | 189 nM | O=C(c1ccc(OCC2CC2)c(C#Cc2ccccn2)c1)N1Cc2ccccc2C1 [Example 80, 2-{[4-(Cyclopropylmethoxy)-3-(pyridin-2-ylethynyl)phenyl]carbonyl}-2,3-dihydro-1H-isoindole]
28 | – | 34 nM | O=C(c1ccc(C(F)(F)F)c(C#Cc2ccccn2)c1)N1CCc2cccnc2C1 [Example 99, 7-{[3-(Pyridin-2-ylethynyl)-4-(trifluoromethyl)phenyl]carbonyl}-5,6,7,8-tetrahydro-1,7-naphthyridine]
29 | – | 120 nM | O=C(c1ccc(C(F)(F)F)c(C#Cc2ccccn2)c1)N1Cc2ccncc2C1 [Example 102, 2-{[3-(Pyridin-2-ylethynyl)-4-(trifluoromethyl)phenyl]carbonyl}-2,3-dihydro-1H-pyrrolo[3,4-c]pyridine]
